Data on two compounds can be found in patent US20180325793A1, “HIGH-PERFORMANCE COSMETIC PRODUCTS CONTAINING A POLYORGANOSILOXANE AND A DIPEPTIDE” (Evonik Degussa GmbH, priority 2014, published 2018).

This data set in a line: solubility in water at room temperature. The format is physicochemical. From the text: The two pairs DD/LL-methionylmethionine and DL/LD-methionylmethionine are diastereomeric relative to one another and have different physical data. […] These mixtures can be incorporated/dissolved simply in an aqueous phase or an aqueous surfactant phase of a cosmetic composition.

In brackets after ≈: the same amount, converted by molar mass. Where a SMILES comes first, the peptide text is derived from it.

A word on the solubility: it is how much of the substance goes into solution per volume. A high value points to a readily soluble substance. `CSCC[C@H](NC(=O)[C@@H](N)CCSC)C(=O)O` [DD/LL-methionylmethionine, methionylmethionine] (H-Met-Met-OH): the “solubility at room temperature in water” value was 21.0 mg/mL (≈ 74.9 mM).
Regarding `CSCC[C@H](NC(=O)[C@@H](N)CCSC)C(=O)O` [DL/LD-methionylmethionine, methionylmethionine] (H-Met-Met-OH), the “solubility at room temperature in water” value was found to be 0.4 mg/mL (≈ 1.43 mM).
